Test results from patent publication US4873253A, “Phenylalanine derivative and proteinase inhibitor” (Okamoto; Shosuke, priority 1987, dated 1989).
Counter-ions that a name gives are not always drawn. Like-named read-outs stand apart in the source and are kept apart here.

Key:
bovine trypsin = target: T1, bovine trypsin (Bos taurus, UniProt P00760); experiment: Antitrypsin activity: inhibition of S-2238 decomposition; type: biochemical; details: Table 2; substrate S-2238, pH 8.1, 37° C.; read-out: Trypsin S-2238 I50
T1 sequence (P00760 24-246): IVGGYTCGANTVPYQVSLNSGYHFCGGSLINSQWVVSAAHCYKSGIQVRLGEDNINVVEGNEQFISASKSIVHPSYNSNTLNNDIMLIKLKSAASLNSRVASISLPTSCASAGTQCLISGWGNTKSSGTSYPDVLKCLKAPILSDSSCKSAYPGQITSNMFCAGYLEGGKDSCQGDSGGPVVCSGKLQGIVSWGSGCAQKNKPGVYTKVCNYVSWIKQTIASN
Protocol: Determination of inhibition activity against S-2238 decomposition
An inhibitor sample is dissolved in a 0.05 M Tris-imidazole buffer solution (pH=8.1) and 125 μl of a 1 mM S-2238 solution is added to make the total volume to 1.20 ml. The mixture is incubated at a temperature of 37° C. for 5 minutes in a constant temperature bath. To this mixture, 0.05 ml of bovine trypsin is added and the absorbance, at 405 nm, of the p-nitroaniline formed per minute is determined at a temperature of 37° C. by using the so-called initial velocity method. Thus, the concentration I50 (μmol) of a inhibitor sample, at which the absorbance is one half (i.e., 1/2) of that obtained in the absence of the inhibitor sample, is determined.

bovine thrombin [1] = target: T2, bovine thrombin (Bos taurus, UniProt P00735); experiment: Antithrombin activity: inhibition of S-2238 decomposition; type: biochemical; details: Table 2; substrate S-2238, pH 8.3, 37° C.; read-out: Thrombin S-2238 I50
T2 construct: a 0.2 unit/ml bovine thrombin solution
Protocol: An inhibitor sample is dissolved in a 0.05 M Tris-hydrochloric acid buffer solution (pH=8.3) to make a total volume of 400 μl. […] Thus, the concentration I50 (μmol) of the inhibitor sample at which the absorbance is one half (i.e., 1/2) of that obtained in the absence of the inhibitor sample, is determined.

bovine thrombin [2] = target: T2, bovine thrombin; experiment: Antithrombin activity: inhibition of fibrin formation (fibrinogen); type: biochemical
Protocol: (i) Determination of inhibition activity against fibrin formation
An inhibitor sample is dissolved in a 0.18 M borate-physiological salt buffer solution (pH= 7.4) to make the total volume to 500 μl. […] Thus, a coagulation time is determined. The inhibitor concentration I50 (μmol), at which the coagulation time obtained in the absence of the inhibitor is extended twice, is determined.

human plasmin [3] = target: T3, human plasmin (Homo sapiens, UniProt P00747); experiment: Antiplasmin activity: inhibition of fibrin decomposition; type: biochemical; details: Table 2, pH 7.4, 37° C., read-out: Plasmin Fibrin I50 (concentration doubling fibrin dissolution time)
T3 sequence (P00747 581-810 limits assumed): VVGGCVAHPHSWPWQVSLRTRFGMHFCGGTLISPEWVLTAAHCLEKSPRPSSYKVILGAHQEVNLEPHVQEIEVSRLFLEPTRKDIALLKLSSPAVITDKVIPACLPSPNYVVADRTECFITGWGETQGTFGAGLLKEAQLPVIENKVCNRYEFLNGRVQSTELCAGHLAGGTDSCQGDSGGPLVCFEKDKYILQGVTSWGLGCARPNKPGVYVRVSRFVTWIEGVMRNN
T3 sequence (P00747 97-580 limits assumed): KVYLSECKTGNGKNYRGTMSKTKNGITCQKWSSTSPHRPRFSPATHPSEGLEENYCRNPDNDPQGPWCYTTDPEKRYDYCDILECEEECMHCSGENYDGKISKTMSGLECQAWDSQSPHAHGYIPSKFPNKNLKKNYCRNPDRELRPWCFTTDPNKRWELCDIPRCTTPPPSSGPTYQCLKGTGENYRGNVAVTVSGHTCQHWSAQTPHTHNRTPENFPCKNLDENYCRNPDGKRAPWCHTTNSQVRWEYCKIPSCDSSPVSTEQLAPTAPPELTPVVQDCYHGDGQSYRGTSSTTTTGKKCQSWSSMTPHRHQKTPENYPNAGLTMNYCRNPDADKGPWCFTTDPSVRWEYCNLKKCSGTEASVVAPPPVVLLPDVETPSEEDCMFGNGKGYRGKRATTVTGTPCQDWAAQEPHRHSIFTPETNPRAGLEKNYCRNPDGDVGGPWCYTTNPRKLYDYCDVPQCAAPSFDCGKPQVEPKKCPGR
Protocol: (i) Determination of inhibition activity for fibrin decomposition
An inhibitor sample is dissolved in a 0.18 M borate-physiological salt buffer solution (pH=7.4) to make the total volume to 600 μl. To this buffer solution, 200 μl of a 0.2% bovine fibrinogen, 100 μl of a 0.3 casein unit/ml human plasmin solution, and 100 μl of a 50 unit/ml bovine thrombin solution, all dissolved in the above-mentioned buffer, are added at a temperature of 37° C. in a constant temperature bath. Then, the dissolution time of the fibrin mass formed above is determined.

human urokinase = human urokinase (Homo sapiens, UniProt P00749); experiment: biochemical; details: read-out: Urokinase S-2444 I50
Protocol: Determination of inhibition activity for S-2444 decomposition
(§1) An inhibitor sample is dissolved in a 0.05 M Tris-hydrochloric acid buffer solution (pH=8.8) to make the total volume to 400 μl. To this solution, 50 μl of a 1 mM S-2444 solution is added and the mixture is incubated at a temperature of 37° C. for 5 minutes in a constant temperature bath. Then, 50 μl of a 500 unit/ml human urokinase is added and the mixture is incubated at a temperature of 37° C. for 5 minutes. Thereafter, 50 μl of 50% acetic acid is added to terminate the reaction. The absorbance of the p-nitroaniline formed in the reaction mixture is measured at 405 nm. Thus, the concentration I50 (μmol) of the inhibitor sample, at which the absorbance is one half (i.e., 1/2) of that obtained in the absence of the inhibitor sample, is determined.

human plasma kallikrein = human plasma kallikrein (Homo sapiens, UniProt P03952); experiment: Anti-plasma kallikrein activity: inhibition of S-2302 decomposition; type: biochemical; details: Table 2; substrate S-2302, pH 7.8, 37° C.; read-out: Plasma Kallikrein S-2302 I50
human plasma kallikrein, sequence (P03952 391-638 limits assumed): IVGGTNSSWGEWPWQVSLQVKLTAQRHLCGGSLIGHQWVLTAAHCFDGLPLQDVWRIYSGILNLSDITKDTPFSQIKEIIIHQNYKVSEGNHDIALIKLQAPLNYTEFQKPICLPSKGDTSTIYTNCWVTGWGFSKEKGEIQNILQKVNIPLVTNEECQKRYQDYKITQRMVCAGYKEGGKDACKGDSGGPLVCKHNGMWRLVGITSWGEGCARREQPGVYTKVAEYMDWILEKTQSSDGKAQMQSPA
human plasma kallikrein, sequence (P03952 20-390 limits assumed): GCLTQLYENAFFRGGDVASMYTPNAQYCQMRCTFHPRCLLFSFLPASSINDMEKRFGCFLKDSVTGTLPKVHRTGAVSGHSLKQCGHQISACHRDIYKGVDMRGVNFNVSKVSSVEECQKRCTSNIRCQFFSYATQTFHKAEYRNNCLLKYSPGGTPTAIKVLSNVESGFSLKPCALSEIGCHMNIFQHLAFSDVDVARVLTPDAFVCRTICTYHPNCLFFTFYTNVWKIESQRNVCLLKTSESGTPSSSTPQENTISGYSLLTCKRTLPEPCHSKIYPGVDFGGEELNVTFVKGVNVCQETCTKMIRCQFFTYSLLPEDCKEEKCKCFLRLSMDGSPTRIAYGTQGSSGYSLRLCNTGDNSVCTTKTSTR
Protocol: Determination of inhibition activity for S-2302 decomposition
as §1, with “solution (pH=7.8)” for “solution (pH=8.8)”, “a 2” for “a 1”, “mM S-2302” for “mM S-2444”, “a 0.12” for “a 500”, “human plasma kallikrein” for “human urokinase”

human plasmin [4] = target: T3, human plasmin; experiment: Antiplasmin activity: inhibition of S-2251 decomposition; type: biochemical; details: Table 2; substrate S-2251, pH 7.4, 37° C.
Protocol: An inhibitor sample is dissolved in a 0.05 M Tris-hydrochloric acid buffer solution (pH=7.4) to make the total volume to 400 μl. […] Then, 50 μl of a 0.2 casein unit/ml human plasmin is added and the mixture is incubated at a temperature of 37° C. for 4 minutes. Thereafter, the reaction is stopped by adding 50 μl of 50% acetic acid.
Thus, the concentration I50 (μmol) of the inhibitor sample, at which the absorbance is one half (i.e., 1/2) of that obtained in the absence of the inhibitor, is determined.

[5] = Table 2, bovine fibrinogen, pH 7.4, 37° C., read-out: Thrombin Fibrinogen I50 (concentration doubling coagulation time)
[6] = Table 2, substrate S-2444, pH 8.8, 37° C.

IC50 (bovine trypsin) | IC50 (bovine thrombin [1]) | IC50 (bovine thrombin [2]; [5]) | IC50 (human plasmin [3]) | IC50 (human urokinase; [6]) | IC50 (human plasma kallikrein) | IC50 (human plasmin [4]) | IC50 (human urokinase) | IC50 (bovine thrombin [2]) | Structure (SMILES)
2.3 µM | > 1000 µM | > 500 µM | – | – | – | – | – | – | NC[C@H]1CC[C@H](C(=O)NC(Cc2cccc(Oc3ccccc3)c2)C(=O)Nc2ccnc(Cl)c2)CC1 (mixture of isomers) [Compound 9, N-(trans-4-aminomethylcylohexylcarbonyl)-3-phenoxy-DL-phenylalanine 4-(2-chloro)pyridylamide dihydrochloride]
25 µM | – | > 1000 µM | 110 µM | 350 µM | 5.7 µM | 260 µM | – | – | CCOC(=O)C(Cc1cccc(Oc2ccccc2)c1)NC(=O)[C@H]1CC[C@H](CN)CC1 (mixture of isomers) [Compound 57, N-(trans-4-aminomethylcyclohexylcarbonyl)-3-phenoxy-DL-phenylalanine ethyl ester hydrochloride]
> 150 µM | > 1000 µM | – | – | > 1000 µM | 600 µM | – | – | – | NC[C@H]1CC[C@H](C(=O)NC(Cc2cccc(Oc3ccccc3)c2)C(=O)O)CC1 (mixture of isomers) [Compound 58, N-(trans-4-aminomethylcyclohexylcarbonyl)-3-phenoxy-DL-phenylalanine]
15 µM | – | – | 15 µM | – | 1.3 µM | 46 µM | > 100 µM | > 100 µM | Cc1ccc(NC(=O)C(Cc2cccc(Oc3ccccc3)c2)NC(=O)[C@H]2CC[C@H](CN)CC2)cc1 (stereo partly shown) [Compound 1]
2.3 µM | – | > 100 µM | 11 µM | > 100 µM | 1.2 µM | 31 µM | – | – | CCOC(=O)c1cccc(NC(=O)C(Cc2cccc(Oc3ccccc3)c2)NC(=O)[C@H]2CC[C@H](CN)CC2)c1 (stereo partly shown) [Compound 3]
> 15 µM | – | – | 190 µM | > 500 µM | 11 µM | 360 µM | – | > 500 µM | NC[C@H]1CC[C@H](C(=O)NC(Cc2cccc(Oc3ccccc3)c2)C(=O)Nc2ccccn2)CC1 (stereo partly shown) [Compound 6]
> 150 µM | – | > 100 µM | > 100 µM | > 100 µM | > 200 µM | > 100 µM | – | – | NC[C@H]1CC[C@H](C(=O)NC(Cc2cccc(Oc3ccccc3)c2)C(=O)NCC(=O)c2ccccc2)CC1 (stereo partly shown) [Compound 15]
> 150 µM | – | > 1000 µM | > 1000 µM | > 500 µM | > 1000 µM | > 1000 µM | – | – | COC(=O)[C@@H](C)NC(=O)C(Cc1cccc(Oc2ccccc2)c1)NC(=O)[C@H]1CC[C@H](CN)CC1 (stereo partly shown) [Compound 16]
> 150 µM | – | > 1000 µM | 570 µM | > 500 µM | > 1000 µM | 1000 µM | – | – | NC[C@H]1CC[C@H](C(=O)NC(Cc2cccc(Oc3ccccc3)c2)C(=O)N2CCC(C(=O)O)CC2)CC1 (stereo partly shown) [Compound 17]
> 150 µM | – | > 100 µM | > 100 µM | > 1000 µM | > 500 µM | 430 µM | – | – | CCOC(=O)C1CCN(C(=O)C(Cc2cccc(Oc3ccccc3)c2)NC(=O)[C@H]2CC[C@H](CN)CC2)CC1 (stereo partly shown) [Compound 18]
> 150 µM | – | > 1000 µM | > 1000 µM | > 1000 µM | > 1000 µM | > 1000 µM | – | – | NC[C@H]1CC[C@H](C(=O)NC(Cc2cccc(Oc3ccccc3)c2)C(=O)N2CCOCC2)CC1 (stereo partly shown) [Compound 19]
> 150 µM | – | > 1000 µM | > 60 µM | > 1000 µM | > 1000 µM | > 100 µM | – | – | COC(=O)[C@H]1CCCN1C(=O)C(Cc1cccc(Oc2ccccc2)c1)NC(=O)[C@H]1CC[C@H](CN)CC1 (stereo partly shown) [Compound 20]
8.2 µM | – | > 1000 µM | 620 µM | > 500 µM | 350 µM | 750 µM | – | – | COCCCNC(=O)C(Cc1cccc(C(=O)c2ccccc2)c1)NC(=O)[C@H]1CC[C@H](CN)CC1 (stereo partly shown) [Compound 23]
> 150 µM | – | > 1000 µM | 700 µM | > 1000 µM | > 1000 µM | > 1000 µM | – | – | NC[C@H]1CC[C@H](C(=O)NC(Cc2cccc(C(=O)c3ccccc3)c2)C(=O)N2CCOCC2)CC1 (stereo partly shown) [Compound 24]
> 150 µM | – | > 1000 µM | 400 µM | > 1000 µM | > 1000 µM | > 1000 µM | – | – | CCOC(=O)C1CCCCN1C(=O)C(Cc1cccc(Oc2ccc(Br)cn2)c1)NC(=O)[C@H]1CC[C@H](CN)CC1 (stereo partly shown) [Compound 26]
> 150 µM | – | > 1000 µM | 440 µM | > 1000 µM | > 1000 µM | 280 µM | – | – | NC[C@H]1CC[C@H](C(=O)NC(Cc2cccc(Oc3ccc(Br)cn3)c2)C(=O)N2CCOCC2)CC1 (stereo partly shown) [Compound 27]
87 µM | – | > 1000 µM | 260 µM | > 1000 µM | > 1000 µM | > 1000 µM | – | – | COCCCNC(=O)C(Cc1cccc(C(F)(F)F)c1)NC(=O)[C@H]1CC[C@H](CN)CC1 (stereo partly shown) [Compound 28]
> 150 µM | – | > 100 µM | > 100 µM | > 500 µM | > 100 µM | 160 µM | – | – | CCOC(=O)C1CCN(C(=O)C(Cc2cccc(Oc3ccccc3)c2)NC(=O)[C@H]2CC[C@H](CNC(=N)N)CC2)CC1 (stereo partly shown) [Compound 31]
15 µM | – | > 25 µM | > 25 µM | 100 µM | 2.2 µM | 120 µM | – | – | CC(=O)c1ccc(NC(=O)C(Cc2cccc(Oc3ccccc3)c2)NC(=O)c2ccc(NC(=N)N)cc2)cc1 (stereo not shown) [Compound 32]
42 µM | – | – | > 25 µM | > 200 µM | 4.5 µM | > 100 µM | – | > 25 µM | CCOC(=O)c1cccc(NC(=O)C(Cc2cccc(Oc3ccccc3)c2)NC(=O)c2ccc(NC(=N)N)cc2)c1 (stereo not shown) [Compound 33]
